Measured values from patent publication US20100179128A1, “XANTHINE DERIVATIVES AS SELECTIVE HM74A AGONISTS” (priority 2005, published 2010).

biological target: T1, Human HM74A (Homo sapiens, UniProt Q8TDS4); assay: [35S]-GTPγS binding assay on HM74A membranes (10 μl and 50 μl formats); type: biochemical; settings: 10 μl and/or 50 μl assay, in which they were tested; +/−0.3 log unit; read-out: pEC50 in the [35S]-GTPγS binding assays (converted)
T1 construct: expressed in transfected cells; P2 membrane fractions
Procedure: For transient transfections, HEK293T cells (HEK293 cells stably expressing the SV40 large T-antigen) were maintained in DMEM containing 10% foetal calf serum and 2 mM glutamine. Cells were seeded in 90 mm culture dishes and grown to 60-80% confluence (18-24 h) prior to transfection. Human HM74A (GenBank™ accession number AY148884) was subcloned in to a mammalian expression vector (pcDNA3; Invitrogen) and transfected using Lipofectamine reagent. For transfection, 9 μg of DNA was mixed with 30 μl Lipofectamine in 0.6 ml of Opti-MEM (Life Technologies Inc.) and was incubated at room temperature for 30 min prior to the addition of 1.6 ml of Opti-MEM. Cells were exposed to the Lipofectamine/DNA mixture for 5 h and 6 ml of 20% (v/v) foetal calf serum in DMEM was then added. Cells were harvested 48 h after transfection. Pertussis toxin treatment was carried out by supplementation into media at 50 ngml^−1 for 16 h. All transient transfection studies involved co-transfection of receptor together with the Gi/o G protein, Go1α.
For generation of stable cell lines the above method was used to transfect CHO-K1 cells seeded in six well dishes grown to 30% confluence. These cells were maintained in DMEM F-12 HAM media containing 10% foetal calf serum and 2 mM glutamine. 48 h post-transfection the media was supplemented with 400 μg/ml Geneticin (G418, Gibco) for selection of antibiotic resistant cells. Clonal CHO-K1 cell lines stably expressing HM74A were confirmed by [^35S]-GTPγS binding measurements, following the addition of nicotinic acid.
P2 membrane preparation—Plasma membrane-containing P2 particulate fractions were prepared from cell pastes frozen at −80° C. after harvest. All procedures were carried out at 4° C. Cell pellets were resuspended in 1 ml of 10 mM Tris-HCl and 0.1 mM EDTA, pH 7.5 (buffer A) and by homogenisation for 20 s with a Ultra Turrax followed by passage (5 times) through a 25-gauge needle. Cell lysates were centrifuged at 1,000 g for 10 min in a microcentrifuge to pellet the nuclei and unbroken cells and P2 particulate fractions were recovered by microcentrifugation at 16,000 g for 30 min. P2 particulate fractions were resuspended in buffer A and stored at −80° C. until required.
[^35S]-GTPγS binding—assays were performed at room temperature in 384-well format based on methods described previously, (Wieland, T. and Jakobs, K. H. (1994) Methods Enzymol. 237, 3-13). Briefly, the dilution of standard or test compounds were prepared and added to a 384-well plate in a volume of 10 μl. Membranes (HM74A or HM74) were diluted in assay buffer (20 mM HEPES, 100 mM NaCl, 10 mM MgCl2, pH7.4) supplemented with saponin (60 μg/ml), Leadseeker WGA beads (Amersham; 250 μg/well) and 10 μM GDP, so that the 20 μl volume added to each well contains 5 μg of membranes. [^35S]-GTPγS (1170 Ci/mmol, Amersham) was diluted (1:1500) in assay buffer and 20 μl added to each well. Following the addition of the radioligand, the plates were sealed, pulse spun and incubated for 4 hours at room temperature. At the end of the incubation period the plates were read on a Leadseeker machine (VIEWLUX PLUS; Perkin-Elmer) to determine the levels of specific binding.
These assays were refined by reducing the final assay volume to 10 μl. For this 10 μl assay a revised protocol was used. This involved the use of only 100 nl of standard or test compound per well of a 384-well plate and 1.5 μg membrane and 100 μg Leadseeker WGA beads. For the low volume protocol, membrane, beads and [^35S]-GTPγS were mixed together and then 10 μl of this mix were dispensed to each well. Incubation and plate read were identical for the 10 μl and 50 μl assays.
All exemplified compounds were tested in one or both of the [^35S]-GTPγS binding assays described above (i.e. the 10 μl and 50 μl assays).
Data was analysed by curve fitting as carried out using a Four Parameter Logistical equation using the XC50 software package (max 2 points deleted from any one curve). […]

T1 sequence (Q8TDS4 whole entry): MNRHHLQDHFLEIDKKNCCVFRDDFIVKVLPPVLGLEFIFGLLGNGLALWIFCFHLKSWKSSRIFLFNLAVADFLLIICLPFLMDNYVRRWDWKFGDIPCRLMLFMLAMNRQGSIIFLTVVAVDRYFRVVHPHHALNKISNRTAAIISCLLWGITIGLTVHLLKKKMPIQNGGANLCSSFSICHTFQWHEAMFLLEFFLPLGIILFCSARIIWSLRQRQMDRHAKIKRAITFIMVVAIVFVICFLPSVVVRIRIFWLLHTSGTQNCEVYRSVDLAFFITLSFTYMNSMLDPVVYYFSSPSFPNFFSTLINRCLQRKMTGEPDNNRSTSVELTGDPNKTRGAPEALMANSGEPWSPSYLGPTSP

EC50, > 50.1 µM:
O=c1c2[nH]c(Cl)nc2n(CCN2CCCCCC2)c(=O)n1CCCc1nc(Cc2ccc(F)cc2F)no1 [8-chloro-1-(3-{3-[(2,4-difluorophenyl)methyl]-1,2,4-oxadiazol-5-yl}propyl)-3-[2-(hexahydro-1H-azepin-1-yl)ethyl]-3,7-dihydro-1H-purine-2,6-dione]
O=c1c2[nH]c(Cl)nc2n(CCN2CCCCC2)c(=O)n1CCCc1nc(Cc2ccc(F)cc2F)no1 [8-chloro-1-(3-{3-[(2,4-difluorophenyl)methyl]-1,2,4-oxadiazol-5-yl}propyl)-3-[2-(1-piperidinyl)ethyl]-3,7-dihydro-1H-purine-2,6-dione]
CN(C)C(C)(C)Cn1c(=O)n(CCCc2nc(Cc3ccc(F)cc3F)no2)c(=O)c2[nH]c(Cl)nc21 [8-chloro-1-(3-{3-[(2,4-difluorophenyl)methyl]-1,2,4-oxadiazol-5-yl}propyl)-3-[2-(dimethylamino)-2-methylpropyl]-3,7-dihydro-1H-purine-2,6-dione]
CN(C)CCCn1c(=O)n(CCCc2nc(Cc3ccc(F)cc3F)no2)c(=O)c2[nH]c(Cl)nc21 [8-chloro-1-(3-{3-[(2,4-difluorophenyl)methyl]-1,2,4-oxadiazol-5-yl}propyl)-3-[3-(dimethylamino)propyl]-3,7-dihydro-1H-purine-2,6-dione]
CN(C)CCn1c(=O)n(CCCc2nc(Cc3ccc(F)cc3F)no2)c(=O)c2[nH]c(Cl)nc21 [8-chloro-1-(3-{3-[(2,4-difluorophenyl)methyl]-1,2,4-oxadiazol-5-yl}propyl)-3-[2-(dimethylamino)ethyl]-3,7-dihydro-1H-purine-2,6-dione]
CN1CCN(CCCn2c(=O)n(CCCc3nc(Cc4ccc(F)cc4F)no3)c(=O)c3[nH]c(Cl)nc32)CC1 [8-chloro-1-(3-{3-[(2,4-difluorophenyl)methyl]-1,2,4-oxadiazol-5-yl}propyl)-3-[3-(4-methyl-1-piperazinyl)propyl]-3,7-dihydro-1H-purine-2,6-dione]
O=c1c2[nH]c(Cl)nc2n(CCN2CCCC2)c(=O)n1CCCc1nc(Cc2ccc(F)cc2F)no1 [8-chloro-1-(3-{3-[(2,4-difluorophenyl)methyl]-1,2,4-oxadiazol-5-yl}propyl)-3-[2-(1-pyrrolidinyl)ethyl]-3,7-dihydro-1H-purine-2,6-dione]
